The test system of series [1] is full length SMN2 minigene mRNA containing SMN2 exon 7. As to the kind of experiment: SMN2 minigene mRNA splicing RT-qPCR assay in cultured cells. The class given is cell-based, human. To be noted: Homo sapiens, HEK293-H; HEK293H cells stably transfected with SMN2-A minigene, 24 hours, 7-point concentration curve; concentration giving 1.5-fold full length SMN2 mRNA vs vehicle; read-out: EC1.5x for production of full length SMN2 mRNA. The essentials:
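HEK293H cells stably carrying SMN2-A minigene treated 24 h (37 °C) with compound, 7-point 3.16-fold dilution, duplicates. Multiplex RT-qPCR on lysate with exon 7/luciferase primers and exon 7–8 junction probe (minigene-specific). Full-length transcript normalised to GAPDH by modified ΔΔCt, expressed relative to vehicle-treated cells.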

The next series has as its system Smn protein. As to the kind of experiment: Smn protein assay in cultured cells (SMN HTRF). Conditions: SMA patient fibroblast cells (GM03813), 48 hours; for EC1.5x for Smn protein expression: 7-point concentration curve, concentration producing 1.5 times Smn protein vs DMSO vehicle; for maximum fold (Fold) increase of Smn protein: 7-point concentration data, relative to vehicle control. The class given is cell-based, human. In short, it runs like this:
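SMA patient fibroblasts, 5,000 per well in DMEM-10% FBS, exposed 48 h at 37° C. to a 7-point, 3.16-fold compound series in triplicate. RIPA lysates read by SMN HTRF (665/620 nm, overnight at room temperature); ΔF over blank expressed as fold of vehicle.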
In general terms: TR-FRET usually uses a lanthanide donor and a delayed reading to cut background.

The values below come from patent publication US9399649B2, “Compounds for treating spinal muscular atrophy” (PTC Therapeutics Inc., priority 2012, dated 2016).

A value given as a limit tells only on which side of the number the result lay.

In turn, `CCc1nc(C)cn2cc(-c3cc4ccc(N5CCN(C)CC5)cc4c(=O)o3)nc12` [Cpd 151, 3-(8-ethyl-6-methylimidazo[1,2-a]pyrazin-2-yl)-7-(4-methylpiperazin-1-yl)-1H-isochromen-1-one] displayed a melting point of 229 to 234 °C. In series [1], the EC (1.5-fold) was at most 0.1 µM. In the series with Smn protein, the “EC1.5x for Smn protein expression” value is on record as “**** (an EC1.5×≦0.3 nM is indicated by four stars (****))” and the “maximum fold (Fold) increase of Smn protein” value (“maximum fold (Fold) increase” for short) is “***** (a fold increase >1.65 is indicated by five stars (*****))”.
On to `COc1ccccc1-c1cc2ccc(N3CCN[C@@H](C)C3)cc2c(=O)o1` [Cpd 32, 3-(2-methoxyphenyl)-7-[(3S)-3-methylpiperazin-1-yl]-1H-isochromen-1-one], for which the melting point was 143 to 146 °C. Moreover, the EC (1.5-fold) in series [1] was 0.3 to 1 µM. Moreover, the “maximum fold (Fold) increase” value with Smn protein is “** (a fold increase between >1.2 and ≦1.35 is indicated by two stars (**))”.
`CCN1CCN(c2ccc3cc(-c4cn5cc(C)ncc5n4)oc(=O)c3c2)C[C@H]1C` [Cpd 126, 7-[(3R)-4-ethyl-3-methylpiperazin-1-yl]-3-(6-methylimidazo[1,2-a]pyrazin-2-yl)-1H-isochromen-1-one] returned a melting point of 238 to 241 °C. For the same molecule, the EC (1.5-fold) in series [1] was at most 0.1 µM. Besides, in the series on Smn protein, the “EC1.5x for Smn protein expression” value is on record as “**** (an EC1.5×≦0.3 nM is indicated by four stars (****))”; the “maximum fold (Fold) increase” value is “**** (a fold increase between >1.5 and ≦1.65 is indicated by four stars (****))”.
`Cc1cn2cc(-c3cc4ccc(N5CCN(C)[C@H](C)C5)cc4c(=O)o3)nc2c(C)n1` [Cpd 72, 3-(6,8-dimethylimidazo[1,2-a]pyrazin-2-yl)-7-[(3R)-3,4-dimethylpiperazin-1-yl]-1H-isochromen-1-one] yielded a melting point of 252 to 254 °C. Moreover, the EC (1.5-fold) in series [1] is at most 0.1 µM. For the same molecule, in the series on Smn protein, the “EC1.5x for Smn protein expression” value was “*** (an EC1.5× between >0.3 nM and ≦1 nM is indicated by three stars (***))”; the “maximum fold (Fold) increase” value was “***** (a fold increase >1.65 is indicated by five stars (*****))”.
With `C[C@H]1CN(c2ccc3cc(-c4cccc(O)c4)oc(=O)c3c2)CCN1` [Cpd 44, 3-(3-hydroxyphenyl)-7-[(3S)-3-methylpiperazin-1-yl]-1H-isochromen-1-one], the melting point was 256 to 258 °C. For the same molecule, the EC (1.5-fold) in series [1] fell in the range of 3 to 30 µM. Also, in the series on Smn protein, the “maximum fold (Fold) increase” value was “** (a fold increase between >1.2 and ≦1.35 is indicated by two stars (**))”.
Molecule `Cc1cn2cc(-c3cc4ccc(N5C[C@@H](C)N(CCO)[C@@H](C)C5)cc4c(=O)o3)nc2cn1` [Cpd 130, 7-[(3R,5S)-4-(2-hydroxyethyl)-3,5-dimethylpiperazin-1-yl]-3-(6-methylimidazo[1,2-a]pyrazin-2-yl)-1H-isochromen-1-one] gave a melting point of 241 to 245 °C. Besides, in series [1], the EC (1.5-fold) is at most 0.1 µM. In the series with Smn protein, the “EC1.5x for Smn protein expression” value is given as “**** (an EC1.5×≦0.3 nM is indicated by four stars (****))”; the “maximum fold (Fold) increase” value was “**** (a fold increase between >1.5 and ≦1.65 is indicated by four stars (****))”.
Take `CCc1nc(C)cn2cc(-c3cc4ccc(C5=CCNCC5)cc4c(=O)o3)nc12` [Cpd 159, 3-(8-ethyl-6-methylimidazo[1,2-a]pyrazin-2-yl)-7-(1,2,3,6-tetrahydropyridin-4-yl)-1H-isochromen-1-one]: the melting point was 239 to 241 °C. The EC (1.5-fold) in series [1] is at most 0.1 µM. Moreover, in the series with Smn protein, the “EC1.5x for Smn protein expression” value is “**** (an EC1.5×≦0.3 nM is indicated by four stars (****))” and the “maximum fold (Fold) increase” value was “***** (a fold increase >1.65 is indicated by five stars (*****))”.
`Cc1nc(Cl)cn2cc(-c3cc4ccc(N5CCNCC5)cc4c(=O)o3)nc12` [Cpd 99, 3-(6-chloro-8-methylimidazo[1,2-a]pyrazin-2-yl)-7-(piperazin-1-yl)-1H-isochromen-1-one] gave a melting point of 221 to 226 °C. Further, the EC (1.5-fold) in series [1] was at most 0.1 µM. For the same molecule, in the series on Smn protein, the “EC1.5x for Smn protein expression” value was “*** (an EC1.5× between >0.3 nM and ≦1 nM is indicated by three stars (***))”; the “maximum fold (Fold) increase” value is “***** (a fold increase >1.65 is indicated by five stars (*****))”.
In turn, `COc1ccc(-c2cc3ccc(N4CCNCC4)cc3c(=O)o2)cc1` [Cpd 24, 3-(4-methoxyphenyl)-7-(piperazin-1-yl)-1H-isochromen-1-one] came in with a melting point of 235 to 238 °C. Besides, in series [1], the EC (1.5-fold) was 0.1 to 0.3 µM. Also, in the series with Smn protein, the “EC1.5x for Smn protein expression” value was “*** (an EC1.5× between >0.3 nM and ≦1 nM is indicated by three stars (***))”; the “maximum fold (Fold) increase” value was “*** (a fold increase between >1.35 and ≦1.5 is indicated by three stars (***))”.
As for `Cc1cn2cc(-c3cc4ccc(C5CCN(C)CC5)cc4c(=O)o3)nc2c(C)n1` [Cpd 114, 3-(6,8-dimethylimidazo[1,2-a]pyrazin-2-yl)-7-(1-methylpiperidin-4-yl)-1H-isochromen-1-one], the melting point is 248 to 250 °C. For the same molecule, the EC (1.5-fold) in series [1] is at most 0.1 µM. For the same molecule, in the series on Smn protein, the “EC1.5x for Smn protein expression” value is “**** (an EC1.5×≦0.3 nM is indicated by four stars (****))” and the “maximum fold (Fold) increase” value is given as “***** (a fold increase >1.65 is indicated by five stars (*****))”.
On the same counts, the results for `CCCN1CC=C(c2ccc3cc(-c4cn5cc(C)nc(C)c5n4)oc(=O)c3c2)CC1` [Cpd 95, 3-(6,8-dimethylimidazo[1,2-a]pyrazin-2-yl)-7-(1-propyl-1,2,3,6-tetrahydropyridin-4-yl)-1H-isochromen-1-one] are 226 to 228 °C, at most 0.1 µM, “**** (an EC1.5×≦0.3 nM is indicated by four stars (****))” and “***** (a fold increase >1.65 is indicated by five stars (*****))”.
For the molecule `Cc1cn2cc(-c3cc4ccc(C5=CCNCC5)cc4c(=O)o3)nc2c(C)n1` [Cpd 88, 3-(6,8-dimethylimidazo[1,2-a]pyrazin-2-yl)-7-(1,2,3,6-tetrahydropyridin-4-yl)-1H-isochromen-1-one], the melting point was 266 °C (dec.). In addition, in series [1], the EC (1.5-fold) was at most 0.1 µM. Besides, in the series with Smn protein, the “EC1.5x for Smn protein expression” value was “**** (an EC1.5×≦0.3 nM is indicated by four stars (****))”; the “maximum fold (Fold) increase” value was “**** (a fold increase between >1.5 and ≦1.65 is indicated by four stars (****))”.
`COCCN1CC=C(c2ccc3cc(-c4cn5cc(C)nc(C)c5n4)oc(=O)c3c2)CC1` [Cpd 92, 3-(6,8-dimethylimidazo[1,2-a]pyrazin-2-yl)-7-[1-(2-methoxyethyl)-1,2,3,6-tetrahydropyridin-4-yl]-1H-isochromen-1-one] yielded a melting point of 174 to 176 °C. Besides, in series [1], the EC (1.5-fold) was at most 0.1 µM. In the series with Smn protein, the “EC1.5x for Smn protein expression” value is “**** (an EC1.5×≦0.3 nM is indicated by four stars (****))” and the “maximum fold (Fold) increase” value was “***** (a fold increase >1.65 is indicated by five stars (*****))”.
On to `C[C@H]1CN(c2ccc3cc(-c4ccc(O)c(O)c4)oc(=O)c3c2)CCN1` [Cpd 41, 3-(3,4-dihydroxyphenyl)-7-[(3S)-3-methylpiperazin-1-yl]-1H-isochromen-1-one], for which the melting point lay in the range of 220 to 222 °C. In series [1], the EC (1.5-fold) was 0.3 to 1 µM. Besides, in the series on Smn protein, the “maximum fold (Fold) increase” value was “*** (a fold increase between >1.35 and ≦1.5 is indicated by three stars (***))”.
Consider `Cc1cn2cc(-c3cc4ccc(N5C[C@@H](C)N[C@@H](C)C5)cc4c(=O)o3)nc2cn1` [Cpd 58, 7-[(3R,5S)-3,5-dimethylpiperazin-1-yl]-3-(6-methylimidazo[1,2-a]pyrazin-2-yl)-1H-isochromen-1-one], for which the melting point was 279 to 281 °C. Also, the EC (1.5-fold) in series [1] is at most 0.1 µM. In the series on Smn protein, the “EC1.5x for Smn protein expression” value is “**** (an EC1.5×≦0.3 nM is indicated by four stars (****))” and the “maximum fold (Fold) increase” value was “***** (a fold increase >1.65 is indicated by five stars (*****))”.
On to `COc1c(F)cc(-c2cc3ccc(N4CCN[C@@H](C)C4)cc3c(=O)o2)cc1F` [Cpd 49, 3-(3,5-difluoro-4-methoxyphenyl)-7-[(3S)-3-methylpiperazin-1-yl]-1H-isochromen-1-one], for which the melting point was in the range of 170 to 173 °C. In addition, the EC (1.5-fold) in series [1] fell in the range of 3 to 30 µM. Besides, in the series with Smn protein, the “maximum fold (Fold) increase” value is “* (A maximum fold increase of ≦1.2 is indicated by one star (*))”.
Molecule `CN1CCN(c2ccc3cc(-c4ccccn4)oc(=O)c3c2)CC1` [Cpd 4, 7-(4-methylpiperazin-1-yl)-3-(pyridin-2-yl)-1H-isochromen-1-one] came in with a melting point of 174 to 176 °C. Also, the EC (1.5-fold) in series [1] lay in the range of 3 to 30 µM. Besides, the “maximum fold (Fold) increase” value in the series on Smn protein is “* (A maximum fold increase of ≦1.2 is indicated by one star (*))”.
Consider `Cc1cn2cc(-c3cc4ccc(N5CCNCC5)cc4c(=O)o3)nc2cn1` [Cpd 56, 3-(6-methylimidazo[1,2-a]pyrazin-2-yl)-7-(piperazin-1-yl)-1H-isochromen-1-one], for which the melting point lay within 225 to 227 °C. Further, the EC (1.5-fold) in series [1] is at most 0.1 µM. In the series with Smn protein, the “EC1.5x for Smn protein expression” value is given as “**** (an EC1.5×≦0.3 nM is indicated by four stars (****))” and the “maximum fold (Fold) increase” value is given as “***** (a fold increase >1.65 is indicated by five stars (*****))”.

As usually defined, the melting point is the temperature, or range, at which the solid turns liquid.
